Test results published in PubChem BioAssay AID256 (DTP/NCI, 2004).
Several values for one entry are separate records, joined by “and”; a condition that tells them apart may be missing. Equal entries are not always repeated. Inconclusive results and toxic doses are left out. The calls were made as follows: active = survival T/C of 150% or more; inactive = T/C below 125% in these data.

Test system: CD2F1 mice, L1210 leukemia ip, survival T/C
Assay: NCI In Vivo Anticancer Drug Screen. Data for tumor model L1210 Leukemia (intraperitoneal) in CD2F1 (CDF1) mice
Details: higher = longer survival
In short: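 Activity against a transplanted murine tumor was judged by comparing the compound group with a vehicle group. The outcome in the treated animals was divided by that in the controls.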

[1] = endpoint: mean survival time, dose: 100.0 mg/kg/injection, schedule: Q04DX003 (ip), vehicle: saline with Tween-80
[2] = endpoint: mean survival time, dose: 200.0 mg/kg/injection, schedule: Q04DX003 (ip), vehicle: saline with Tween-80
[3] = endpoint: mean survival time, dose: 100.0 mg/kg/injection, schedule: Q01DX009 (ip), vehicle: saline with Tween-80
[4] = endpoint: mean survival time, dose: 200.0 mg/kg/injection, schedule: Q01DX009 (ip), vehicle: saline with Tween-80
[5] = endpoint: mean survival time, dose: 400.0 mg/kg/injection, schedule: Q01DX009 (ip), vehicle: saline with Tween-80
[6] = endpoint: mean survival time, dose: 50.0 mg/kg/injection, schedule: Q01DX009 (ip), vehicle: saline with Tween-80
[7] = endpoint: mean survival time, dose: 400.0 mg/kg/injection, schedule: Q04DX003 (ip), vehicle: saline with Tween-80
[8] = endpoint: mean survival time, dose: 12.5 mg/kg/injection, schedule: Q04DX003 (ip), vehicle: saline
[9] = endpoint: mean survival time, dose: 25.0 mg/kg/injection, schedule: Q04DX003 (ip), vehicle: saline
[10] = endpoint: mean survival time, dose: 200.0 mg/kg/injection, schedule: Q01DX009 (ip), vehicle: saline
[11] = endpoint: mean survival time, dose: 50.0 mg/kg/injection, schedule: Q04DX003 (ip), vehicle: saline
[12] = endpoint: mean survival time, dose: 100.0 mg/kg/injection, schedule: Q04DX003 (ip), vehicle: saline

Measured: T/C

C[C@H](C[P+](c1ccccc1)(c1ccccc1)c1ccccc1)[C@](OC(=O)c1ccccc1)(C(=O)c1ccccc1)c1ccccc1
inactive: endpoint: mean survival time, dose: 1.25 mg/kg/injection, schedule: Q01DX009 (ip), vehicle: saline with Tween-80 101 % of control | endpoint: mean survival time, dose: 2.5 mg/kg/injection, schedule: Q01DX009 (ip), vehicle: saline with Tween-80 98 % of control | endpoint: mean survival time, dose: 5.0 mg/kg/injection, schedule: Q01DX001 (ip), vehicle: saline with Tween-80 103 % of control | endpoint: mean survival time, dose: 5.0 mg/kg/injection, schedule: Q01DX009 (ip), vehicle: saline with Tween-80 98 % of control

O=S(CC(O)c1ccccc1)c1ccccc1 (stereo not drawn)
inactive: [1] 93 % of control | [2] 102 % of control

CC(=O)CC(=O)Nc1cc(Cl)c(NC(=O)CC(C)=O)cc1Cl
inactive: endpoint: mean survival time, dose: 44.0 mg/kg/injection, schedule: Q04DX003 (ip), vehicle: saline with Tween-80 104 % of control | endpoint: mean survival time, dose: 66.0 mg/kg/injection, schedule: Q04DX003 (ip), vehicle: saline with Tween-80 96 % of control | [3] 97 % of control | [1] 98 % of control | endpoint: mean survival time, dose: 150.0 mg/kg/injection, schedule: Q04DX003 (ip), vehicle: saline with Tween-80 100 % of control | [4] 97 % of control | [5] 97 % of control

O=C(/C=C(\C(=O)c1ccccc1)c1ccccc1)c1ccccc1
inactive: [6] 95 % of control | endpoint: mean survival time, dose: 50.0 mg/kg/injection, schedule: Q04DX003 (ip), vehicle: saline with Tween-80 92 % of control | [3] 96 % of control | [1] 87 % of control | [4] 101 % of control | [2] 87 % of control

O=S(=O)(OCC(COS(=O)(=O)c1ccccc1)(COS(=O)(=O)c1ccccc1)COS(=O)(=O)c1ccccc1)c1ccccc1
inactive: [6] 96 % of control | [3] 97 % of control | [1] 86 % of control | [4] 95 % of control | [2] 89 % of control

CC(=O)OC1COC(n2cnc3c(=O)[nH]cnc32)C(OC(C)=O)C1OC(C)=O (stereo not drawn)
inactive: endpoint: mean survival time, dose: 12.5 mg/kg/injection, schedule: Q01DX001 (ip), vehicle: saline 100 % of control and 109 % of control | endpoint: mean survival time, dose: 25.0 mg/kg/injection, schedule: Q01DX001 (ip), vehicle: saline 100 % of control and 106 % of control | endpoint: mean survival time, dose: 50.0 mg/kg/injection, schedule: Q01DX001 (ip), vehicle: saline 118 % of control and 103 % of control | endpoint: mean survival time, dose: 100.0 mg/kg/injection, schedule: Q01DX001 (ip), vehicle: saline 97 % of control and 106 % of control

C[N+]1(C)CC2CCCCC1C2=O (stereo not drawn)
inactive: endpoint: mean survival time, dose: 75.0 mg/kg/injection, schedule: Q01DX001 (ip), vehicle: saline 111 % of control | endpoint: mean survival time, dose: 150.0 mg/kg/injection, schedule: Q01DX001 (ip), vehicle: saline 101 % of control | endpoint: mean survival time, dose: 300.0 mg/kg/injection, schedule: Q01DX001 (ip), vehicle: saline 98 % of control

O=c1nc(N2CCCCCCC2)ccn1C1OC(CO)C(O)C1O (stereo not drawn)
inactive: endpoint: median survival time, dose: 12.5 mg/kg/injection, schedule: Q01DX005 (ip), vehicle: water 98 % of control | endpoint: median survival time, dose: 25.0 mg/kg/injection, schedule: Q01DX005 (ip), vehicle: water 98 % of control | endpoint: median survival time, dose: 50.0 mg/kg/injection, schedule: Q01DX005 (ip), vehicle: water 118 % of control | endpoint: median survival time, dose: 100.0 mg/kg/injection, schedule: Q01DX005 (ip), vehicle: water 112 % of control | endpoint: median survival time, dose: 200.0 mg/kg/injection, schedule: Q01DX005 (ip), vehicle: water 104 % of control

Cc1nc(NN)c([N+](=O)[O-])c(NN)n1
inactive: endpoint: mean survival time, dose: 100.0 mg/kg/injection, schedule: Q04DX003 (ip), vehicle: Klucel (hydroxypropylcellulose) (HPC) 89 % of control | endpoint: mean survival time, dose: 200.0 mg/kg/injection, schedule: Q04DX003 (ip), vehicle: Klucel (hydroxypropylcellulose) (HPC) 95 % of control | endpoint: mean survival time, dose: 400.0 mg/kg/injection, schedule: Q04DX003 (ip), vehicle: Klucel (hydroxypropylcellulose) (HPC) 102 % of control

On1ccc(=S)c2ccccc21
inactive: [1] 102 % of control | [2] 96 % of control | [7] 102 % of control

O=C(O)CC1C=CCC1 (stereo not drawn)
inactive: endpoint: mean survival time, dose: 6.25 mg/kg/injection, schedule: Q04DX003 (ip), vehicle: saline 102 % of control | [8] 97 % of control | [9] 97 % of control | [1] 98 % of control

CN(Cc1cnc2nc(N)nc(N)c2n1)c1ccc(C(=O)NC(CCP(=O)(O)O)P(=O)(O)O)cc1 (stereo not drawn)
inactive: endpoint: median survival time, dose: 0.38 mg/kg/injection, schedule: Q01DX009 (ip), vehicle: saline 101 % of control | endpoint: median survival time, dose: 0.75 mg/kg/injection, schedule: Q01DX009 (ip), vehicle: saline 101 % of control | endpoint: median survival time, dose: 1.5 mg/kg/injection, schedule: Q01DX009 (ip), vehicle: saline 98 % of control | endpoint: median survival time, dose: 3.0 mg/kg/injection, schedule: Q01DX009 (ip), vehicle: saline 102 % of control | endpoint: median survival time, dose: 6.0 mg/kg/injection, schedule: Q01DX009 (ip), vehicle: saline 102 % of control | endpoint: median survival time, dose: 12.0 mg/kg/injection, schedule: Q01DX009 (ip), vehicle: saline 101 % of control

CC1C2CCC(C2)C1CO (stereo not drawn)
inactive: endpoint: mean survival time, dose: 50.0 mg/kg/injection, schedule: Q01DX009 (ip), vehicle: saline 102 % of control | endpoint: mean survival time, dose: 100.0 mg/kg/injection, schedule: Q01DX009 (ip), vehicle: saline 98 % of control | [10] 104 % of control

COC1OC2COC(C)(c3ccccc3)OC2C(O)C1[NH-].COC1OC2COC(C)(c3ccccc3)OC2C(O)C1[NH-].[Cl][Pt+2][Cl] (stereo not drawn)
inactive: [8] 93 % of control | [9] 96 % of control | [11] 96 % of control | [12] 95 % of control | endpoint: mean survival time, dose: 200.0 mg/kg/injection, schedule: Q04DX003 (ip), vehicle: saline 102 % of control

CC(C)(C)OC(=O)NC(CCCCNC(=O)C(F)(F)F)C(=O)O (stereo not drawn)
inactive: [3] 102 % of control | [4] 93 % of control | [5] 87 % of control

CCCCCCCCCCCC[Si](CCCCCCCCCCCC)(c1ccccc1)c1ccccc1
inactive: [1] 103 % of control | [2] 93 % of control | [7] 93 % of control

O=C(O)C(O)C(=O)O.[NH2-].[NH2-].[Pt+2]
inactive: [9] 108 % of control | [11] 114 % of control | [12] 120 % of control

c1ccc2c(c1)NCCN2
inactive: endpoint: mean survival time, dose: 25.0 mg/kg/injection, schedule: Q01DX001 (ip), vehicle: saline + alcohol 100 % of control | endpoint: mean survival time, dose: 50.0 mg/kg/injection, schedule: Q01DX001 (ip), vehicle: saline + alcohol 100 % of control | endpoint: mean survival time, dose: 100.0 mg/kg/injection, schedule: Q01DX001 (ip), vehicle: saline + alcohol 106 % of control

O=C(O)CC(NC(=O)CP(=O)(O)O)C(=O)O (stereo not drawn)
inactive: endpoint: mean survival time, dose: 86.4 mg/kg/injection, schedule: Q01DX009 (ip), vehicle: saline 98 % of control | [10] 112 % of control | endpoint: mean survival time, dose: 225.0 mg/kg/injection, schedule: Q01DX009 (ip), vehicle: saline 116 % of control | endpoint: mean survival time, dose: 240.0 mg/kg/injection, schedule: Q01DX009 (ip), vehicle: saline 105 % of control | endpoint: mean survival time, dose: 250.0 mg/kg/injection, schedule: Q01DX009 (ip), vehicle: saline 115 % of control

FC(F)Cc1cccc(C(F)(F)F)c1
inactive: endpoint: mean survival time, dose: 100.0 mg/kg/injection, schedule: Q01DX001 (ip), vehicle: saline with Tween-80 107 % of control | endpoint: mean survival time, dose: 100.0 mg/kg/injection, schedule: Q04DX003 (ip), vehicle: saline sonified 98 % of control | endpoint: mean survival time, dose: 200.0 mg/kg/injection, schedule: Q01DX001 (ip), vehicle: saline with Tween-80 103 % of control | endpoint: mean survival time, dose: 200.0 mg/kg/injection, schedule: Q04DX003 (ip), vehicle: saline sonified 100 % of control | endpoint: mean survival time, dose: 400.0 mg/kg/injection, schedule: Q01DX001 (ip), vehicle: saline with Tween-80 104 % of control | endpoint: mean survival time, dose: 400.0 mg/kg/injection, schedule: Q04DX003 (ip), vehicle: saline sonified 100 % of control
